This passage reports melting point results from a melting point compilation (Tetko et al.).

The structures appear in SMILES notation.

For `O=c1cc(C=C(O)C(F)(F)C(F)(F)F)[nH]c(=O)[nH]1`, the melting point was in the range of 278 to 281 °C.
In the case of `COc1ccc(Oc2ccc(C(F)(F)F)cc2[N+](=O)[O-])cc1` it was 45 to 47 °C.
For the compound `COc1cc2c(cc1OCc1ccccc1)C(C)NCC2` (stereo unspecified), the melting point was 91 °C.
To `CS(=O)(=O)c1ccc2nc(N)sc2c1` belongs 222 to 223 °C.
In the case of `CCN(CC)CCCN(c1ccccc1)C1Cc2ccccc2C1` it was 120 °C; in that of `Fc1cc(Br)ccc1CBr`, 35 °C; in that of `O=C(CN1CCNCC1)N1CCCC1`, 75 to 76 °C.
In the case of `CC1(C(=O)O)CCC(C(Br)C(Br)c2ccccc2)C1(C)C` (stereo unspecified) it was 161 °C; in that of `Cc1onc(-c2ccccc2Cl)c1C(=O)O`, 190 °C.
Turning to `O=C(/C(=N/Nc1ccc(Cl)cc1Cl)S(=O)(=O)c1ccccc1)c1cccc2ccccc12`, the melting point stood at 162 °C.
In the case of `O=[N+]([O-])c1cnc2ccccc2c1O` it was over 345 °C.
In the case of `COc1cc2c(cc1OC)C(c1ccccc1[N+](=O)[O-])N(C(C)=O)CC2` (stereo unspecified) it was 132 to 134 °C; in that of `O=C(C=Cc1ccccc1O)c1cccc(C(=O)C=Cc2ccccc2O)c1`, 150 °C; in that of `Clc1cccc(O[Si]23OCCN(CCO2)CCO3)c1`, 245 °C.
In the case of `CSC` it was -83 °C.
The compound `CN(C)c1ccc(C2Nn3c(COc4ccccc4)nnc3S2)cc1` (stereo unspecified) yielded a melting point of 143 to 144 °C.
In the case of `c1ccc(C2(N3CCCCC3)CCCCC2)cc1` it was 46.5 °C; in that of `O=C=Nc1ccc(Br)cc1Cl`, 71 to 75 °C.
The compound `CCOC(CCl)OCC` registered a melting point of -45 °C.
In turn, `CCOCC1C(=O)C2(C)CCC1C2(C)C` (stereo unspecified) yielded a melting point of 114 °C.
In the case of `CCNC1=NC(=O)C(c2ccccc2)O1` (stereo unspecified) it was 148 °C.
`Cc1ccnc(C)n1` yielded a melting point of -4 °C.
The compound `O=C(O)c1cccc(C(=O)c2ccccc2)c1` returned a melting point of 164 °C.
Compound `OOC1CCCCC1` yielded a melting point of -20 °C.
In the case of `O=C(CBr)c1cccc2c1OCCO2` it was 71 to 72 °C.
As for `Cc1ccc(Br)cc1Br`, the melting point is -9.7 °C.
To `Cc1cc(C(F)(F)F)n2nc(N)c(/N=N/c3ccccc3[N+](=O)[O-])c2n1` belongs 235 °C; to `CC(C)(C)OC(=O)Nc1ccccn1`, 93 °C; to `CC(C)(C)OC(=O)N1CC(O)C1`, 40 °C.
In the case of `CC(=O)Oc1ccc(C(=C2CCCCC2)c2ccc(OC(C)=O)cc2)cc1` it was 136 °C.
In the case of `COc1cc(Cl)c(OC)cc1N` it was 120 °C; in that of `O=C(O)C1CCCNC1` (stereo unspecified), 246 to 253 °C.
The compound `FC(F)(F)C(F)(F)C(F)(F)c1cc(-c2ccccc2)[nH]n1` displayed a melting point of 85 °C.
`COc1ccc(C=CC(=O)c2ccccc2)c(OC)c1` yielded a melting point of 69 to 70 °C.
To `Cc1cc(O)cc(Br)c1` belongs 56.5 °C.
To `CCCCNC(=O)NCCCC` belongs 74 to 75 °C; to `O=C(O)C1(O)CC(O)C(O)C(O)C1` (stereo unspecified), 166 to 168 °C.
In the case of `CCC1CCC(C)CC1` (stereo unspecified) it was -80.8 °C.
`CC(O)(C(=O)O)c1ccccc1` (stereo unspecified) returned a melting point of 116 °C.
In the case of `CC(C)OC(=O)COc1ccc(Cl)cc1Cl` it was 5 °C; in that of `C=CC(C)(CCC=C(C)C)OC(=O)C(C)C` (stereo unspecified), under 25 °C.
Turning to `OCCCCCCCCCCCCCCO`, the melting point is 85.8 °C.
To `Ic1ccccc1I` belongs 27 °C.
In the case of `S=C(c1ccc2c(c1)OCO2)N1CCOCC1` it was 154 °C.
To `CC(CC(C(N)=O)(c1ccccc1)c1ccccn1)N(C)C` (stereo unspecified) belongs 156 °C.
Take `O=c1occo1`: the melting point was 19 to 22 °C.
To `OCc1cc2cccnc2s1` belongs 47 to 49 °C; to `CS(=O)(=O)NC(=O)c1cc(Oc2ccc(C(F)(F)F)cc2Cl)ccc1[N+](=O)[O-]`, 220 °C; to `Cc1onc(-c2ccccc2)c1CBr`, 61 to 63 °C.
Compound `CC(=O)C1CCC2C3CCC4CC(N)CCC4(C)C3CCC12C` (stereo unspecified) had a melting point of 126 °C.
`COC(=O)CCCCCCCCCCCC(=O)OC` had a melting point of 36 °C.
Turning to `Cc1cccc2cccnc12`, the melting point is -80 °C.
`COc1ccc(-n2c(SC)nc3ccccc3c2=O)cc1` displayed a melting point of 154 to 156 °C.
Compound `NNc1ccc(Br)cc1` yielded a melting point of 108 °C.
With `O=C(c1ccccc1)c1ccc(F)c(F)c1`, the melting point stood at 56 °C.
In the case of `COC(=O)CC(=O)c1cncc(Br)c1` it was 88 to 93 °C; in that of `N#C/C(=C\c1ccccc1Cl)c1nc(-c2cccs2)cs1`, 102 °C.
To `O=Cc1ccc(-c2ccc(OC(F)(F)F)cc2)o1` belongs 87 to 88 °C; to `O=C(Nc1ccccc1)OCCc1ccc(CCOC(=O)Nc2ccccc2)cc1`, 213 °C.
Regarding `C#CCOc1c(Cl)cccc1Cl`, the melting point turned out to be 43.5 °C.
To `O=c1cc(-c2ccc(O)cc2)oc2cc(O)cc(O)c12` belongs 348 °C; to `C1=CC2C3C=CC(C3)C2C1` (stereo unspecified), 33.6 °C.
To `CN1C(=O)C(=NNc2cccc(Cl)c2)C(=O)N(C)C1=O` belongs 202 °C; to `Cc1c(CCl)c(C)c2c(c1CCl)CC2`, 92 °C; to `CSCCC=O`, -58 °C.
In the case of `CCOC(=O)c1cc2c(oc1=O)-c1ccc(OC)cc1CC2` it was 141 to 142 °C; in that of `CNS(=O)(=O)O`, 189 to 193 °C; in that of `CCCC(C)(O)CCC`, -82 °C.
For the compound `O=C(O)C(F)(F)C(F)(F)C(F)(F)C(F)(F)C(F)(F)C(F)(F)C(F)(F)C(F)(F)C(F)(F)F`, the melting point was 87.4 to 88.2 °C.
`CN(C)c1ccc(P(=O)(c2ccc(N(C)C)cc2)c2ccc(N(C)C)cc2)cc1` came in with a melting point of 275 to 280 °C.
To `Clc1ccc2nc(N3CCCNCC3)sc2c1` belongs 103 to 105 °C; to `O=C(O)c1cc2cc(Br)ccc2s1`, 233 to 234 °C; to `N#Cc1cc(F)c(F)c(F)c1`, 46 °C.
To `CN1CCN(C)c2cc(Br)ccc21` belongs 55 to 56 °C; to `O=C(c1ccccc1)c1ccccc1C(=O)c1ccccc1`, 146 °C.
To `O=C1/C(=C/c2ccc([N+](=O)[O-])cc2)SC(=S)N1CN1CCOCC1` belongs 169 °C.
Compound `O=C(NCCc1ccccc1)c1cc([N+](=O)[O-])cc([N+](=O)[O-])c1` returned a melting point of 204 °C.
In the case of `O=C(O)COc1cc(Cl)c(Cl)cc1Cl` it was 156 °C; in that of `NC(=O)c1cc(Cl)nc(Cl)c1`, 202 to 206 °C.
In the case of `NC(=S)Cn1cnc(Cl)c1Cl` it was 204 to 207 °C.
In the case of `Nc1cc(Cl)c([N+](=O)[O-])cc1N` it was 189 to 193 °C.
